Reference: ChEMBL document CHEMBL5053484, “Structure-Based Identification of Potent Lysine-Specific Demethylase 1 Inhibitor Peptides and Temporary Cyclization to Enhance Proteolytic Stability and Cell Growth-Inhibitory Activity” (J Med Chem, 2021)
pIC50, pKi: −log10 of the molar value. Residues, ends and D or L forms follow the SMILES beside them.

How the values were obtained:
[1] = system: WI-38; assay: Antiproliferative activity against human WI-38 cells after 72 hrs by alamarBlue assay; type: cell-based; settings: WI-38, 72 h
[2] = molecular target: LSD1/CoREST complex (Homo sapiens, UniProt O60341); assay: Inhibition of human LSD1/CoREST; type: protein-complex assay
[3] = system: HL-60; assay: cells; settings: Homo sapiens, HL-60, 72 h
Description: Antiproliferative activity against human HL-60 cells measured after 72 hrs by alamarBlue assay

Compound | pKi [2] | pIC50 [3] | pIC50 [1]
CN1CCN(C(=O)CNC2CC2c2cc(F)cc(F)c2OCc2ccccc2)CC1 (centres undefined) | – | – | < 4.30
N=C(N)NCCC[C@H](NC(=O)[C@H](CCCNC(=N)N)NC(=O)[C@H](CCCNC(=N)N)NC(=O)[C@H](CCCNC(=N)N)NC(=O)[C@H](CCCNC(=N)N)NC(=O)[C@H](CCCNC(=N)N)NC(=O)[C@H](CCCNC(=N)N)NC(=O)[C@H](CCCNC(=N)N)NC(=O)[C@H](CCCNC(=N)N)NC(=O)[C@H](CCCNC(=N)N)NC(=O)c1cc(OCc2cn(CCO)nn2)cc(OCc2cn(CCO)nn2)c1)C(N)=O | 6.77 | < 4.00 | –
CC(C)C[C@H](NC(=O)[C@H](Cc1ccccc1)NC(=O)[C@H](CO)NC(=O)[C@H](CCCNC(=N)N)NC(=O)[C@@H]1CCCN1)C(=O)N[C@H](C(=O)N[C@@H](CCCNC(=N)N)C(=O)N[C@@H](CCCNC(=N)N)C(=O)N[C@@H](CCCCN)C(=O)O)C(C)C (H-PRSFLVRRK-OH) | – | < 4.00 | < 4.00

Further lines, with some results ahead:

pKi [2] | pIC50 [3] | Compound | pIC50 [1]
– | 5.28 | CC(C)C[C@@H]1NC(=O)[C@H](Cc2ccccc2)NC(=O)[C@H](CO)NC(=O)[C@H](CCCNC(=N)N)NC(=O)[C@@H]2CCCN2C(=O)OCCSSCCn2cc(nn2)COc2cc(cc(C(=O)N[C@@H](CCCNC(=N)N)C(=O)N[C@@H](CCCNC(=N)N)C(=O)N[C@@H](CCCNC(=N)N)C(=O)N[C@@H](CCCNC(=N)N)C(=O)N[C@@H](CCCNC(=N)N)C(=O)N[C@@H](CCCNC(=N)N)C(=O)N[C@@H](CCCNC(=N)N)C(=O)N[C@@H](CCCNC(=N)N)C(=O)N[C@@H](CCCNC(=N)N)C(=O)N[C@@H](CCCNC(=N)N)C(N)=O)c2)OCc2cn(nn2)CCSSCCOC(=O)NCCCC[C@@H](C(N)=O)NC(=O)[C@H](CCCNC(=N)N)NC(=O)[C@H](CCCNC(=N)N)NC(=O)[C@H](C(C)C)NC1=O | 4.39
– | 4.77 | CC(C)C[C@@H]1NC(=O)[C@H](Cc2ccccc2)NC(=O)[C@H](CO)NC(=O)[C@H](CCCNC(=N)N)NC(=O)[C@@H]2CCCN2C(=O)OCCOCCn2cc(nn2)COc2cc(cc(C(=O)N[C@@H](CCCNC(=N)N)C(=O)N[C@@H](CCCNC(=N)N)C(=O)N[C@@H](CCCNC(=N)N)C(=O)N[C@@H](CCCNC(=N)N)C(=O)N[C@@H](CCCNC(=N)N)C(=O)N[C@@H](CCCNC(=N)N)C(=O)N[C@@H](CCCNC(=N)N)C(=O)N[C@@H](CCCNC(=N)N)C(=O)N[C@@H](CCCNC(=N)N)C(=O)N[C@@H](CCCNC(=N)N)C(N)=O)c2)OCc2cn(nn2)CCOCCOC(=O)NCCCC[C@@H](C(N)=O)NC(=O)[C@H](CCCNC(=N)N)NC(=O)[C@H](CCCNC(=N)N)NC(=O)[C@H](C(C)C)NC1=O | < 4.00
